Test results taken from paper PMC9501377, “New Diarylamine KV10.1 Inhibitors and Their Anticancer Potential” (Pharmaceutics, 2022).

System: MCF-7 cells
Assay: Cell growth by Incucyte confluence, MCF-7
Format: cell-based, human
Details: 48–72 h; for reduction of proliferation of MCF-7 cells: 25 µM
Method: MCF-7 (DSMZ ACC 115) and PANC-1 (DSMZ ACC 783) cells were grown as recommended by the cell supplier at 5% CO2 and 37 °C in a humidified atmosphere. For determining cell growth, cells were seeded in 96-well culture plates (Corning, Corning, NY, USA) at a density of 10^4 cells/well. After 24 h, the compounds were added diluted in medium. Six wells per condition were used. Four images of each well were collected at 1 h intervals for 48–72 h. Two biological replicates were performed. Images were acquired using an Incucyte device (Sartorius/Essen biosciences). Cell confluence was calculated using the Incucyte software on the phase contrast images. The results are expressed as percent confluence per well normalised to the value with no compounds added.

CCN(CC)CCOc1ccc(Nc2ccc(C(F)(F)F)cc2[N+](=O)[O-])cc1 [Compound 17a, N-(4-(2-(Diethylamino)ethoxy)phenyl)-2-nitro-4-(trifluoromethyl)aniline]
reduction of proliferation of MCF-7 cells: approximately half | inhibition of growth of MCF-7 cells (concentrations higher than 25 µM): approximately 50%

CN(C)CCOc1c(Br)cc(Nc2ccc(C(F)(F)F)cc2[N+](=O)[O-])cc1Br [Compound 18b, 3,5-Dibromo-4-(2-(dimethylamino)ethoxy)-N-(2-nitro-4-(trifluoromethyl)phenyl)aniline]
reduction of proliferation of MCF-7 cells: approximately half
